Test: Compound was tested for the inhibition of [35S]GTP-gamma-S, binding in Guinea pig Caudate stimulated by the Opioid receptor delta 1 agonist Delta-SNC80

Structure (SMILES) | Ki
CN1CC[C@]2(c3cccc(O)c3)Cc3ccccc3C[C@]2(C)C1 [3-((4aS,10aS)-2,10a-Dimethyl-1,3,4,5,10,10a-hexahydro-2H-benzo[g]isoquinolin-4a-yl)-phenol] | 222 nM
C[C@]12Cc3ccccc3C[C@@]1(c1cccc(O)c1)CCN(CCc1ccccc1)C2 [3-((4aS,10aS)-10a-Methyl-2-phenethyl-1,3,4,5,10,10a-hexahydro-2H-benzo[g]isoquinolin-4a-yl)-phenol] | 184 nM

Reference: BindingDB's records for doi:10.1016/s0960-894x(98)00576-9 (Research Triangle Institute, 1999)
